Experimental data taken from PubChem BioAssay AID310 (DTP/NCI, 2004).
Where “and” joins values, the source holds several entries; their conditions need not be identical. Identical values can stand only once. Records with an inconclusive call do not appear. Where a SMILES comes first, the peptide text is derived from it. [ ]: non-standard residue; d: D form. Ac5c = NC1(C(=O)O)CCCC1

Tested on: C3AKF1 mice, osteogenic sarcoma HE10734 s.c., tumor weight T/C
Assay: NCI In Vivo Anticancer Drug Screen. Data for tumor model Osteogenic Sarcoma HE 10734 (subcutaneous) in C3AKF1 (CHKRF1) mice
Details: endpoint: mean tumor weight, schedule: Q01DX010 (ip), higher = larger tumour
Experimental: The antitumor activity of compounds was measured in mice bearing transplantable tumors. Survival or tumor size were measured and the results are expressed as the measurement made in the treated group (T) divided by the measurement made in the vehicle treated control group (C). The tumor model used in this assay is Osteogenic Sarcoma HE 10734 (subcutaneous) in C3AKF1 (CHKRF1) mice

[1] = dose: 50.0 mg/kg/injection, vehicle: saline
[2] = dose: 200.0 mg/kg/injection, vehicle: saline
[3] = dose: 15.0 mg/kg/injection, vehicle: saline
[4] = dose: 23.0 mg/kg/injection, vehicle: saline
[5] = dose: 35.0 mg/kg/injection, vehicle: saline
[6] = dose: 55.0 mg/kg/injection, vehicle: carboxymethylcellulose (CMC)
[7] = dose: 85.0 mg/kg/injection, vehicle: carboxymethylcellulose (CMC)
[8] = dose: 100.0 mg/kg/injection, vehicle: saline
[9] = dose: 6.0 mg/kg/injection, vehicle: saline
[10] = dose: 12.0 mg/kg/injection, vehicle: saline
[11] = dose: 75.0 mg/kg/injection, vehicle: saline
[12] = dose: 150.0 mg/kg/injection, vehicle: saline
[13] = dose: 62.0 mg/kg/injection, vehicle: saline
[14] = dose: 125.0 mg/kg/injection, vehicle: saline
[15] = dose: 250.0 mg/kg/injection, vehicle: saline
[16] = dose: 2.0 mg/kg/injection, vehicle: carboxymethylcellulose (CMC)
[17] = dose: 4.0 mg/kg/injection, vehicle: carboxymethylcellulose (CMC)
[18] = dose: 10.0 mg/kg/injection, vehicle: carboxymethylcellulose (CMC)
[19] = dose: 500.0 mg/kg/injection, vehicle: saline
[20] = dose: 1000.0 mg/kg/injection, vehicle: saline
[21] = dose: 45.0 mg/kg/injection, vehicle: carboxymethylcellulose (CMC)
[22] = dose: 16.0 mg/kg/injection, vehicle: carboxymethylcellulose (CMC)
[23] = dose: 65.0 mg/kg/injection, vehicle: carboxymethylcellulose (CMC)

S=c1c2[nH]cnc2ncn1CCSC1=NC=NC2=NC=NC21 (stereo not given)
T/C [1]: 81 % of control
T/C [2]: 35 % of control
T/C (dose: 400.0 mg/kg/injection, vehicle: saline): 29 % of control

NC1(C(=O)O)CCCC1
T/C [3]: 109 % of control
T/C [4]: 46 % of control
T/C [5]: 77 % of control
T/C [6]: 30 % of control and 42 % of control
T/C (dose: 55.0 mg/kg/injection, vehicle: saline): 46 % of control
T/C [7]: 27 % of control and 45 % of control

ClCCn1cnc2c(SCc3ccccc3Cl)ncnc21
T/C [1]: 72 % of control
T/C [8]: 56 % of control
T/C [2]: 35 % of control

CCC[CH2][Sn]([CH2]CCC)([CH2]CCC)[O]C(=O)CC[S][Sn]([CH2]CCC)([CH2]CCC)[CH2]CCC
T/C (dose: 0.75 mg/kg/injection, vehicle: saline): 124 % of control
T/C (dose: 1.5 mg/kg/injection, vehicle: saline): 90 % of control
T/C [9]: 72 % of control
T/C [10]: 89 % of control
T/C (dose: 24.0 mg/kg/injection, vehicle: saline): 30 % of control

Nc1ncnc2c1ncn2C1CCCO1 (stereo not given)
T/C [11]: 86 % of control
T/C [12]: 54 % of control

O=[N+]([O-])c1ccccc1CSc1ncnc2nc[nH]c12
T/C [13]: 106 % of control
T/C [14]: 81 % of control
T/C [15]: 28 % of control

CN(C)[C@@H]1C(=O)C(C(=O)NCN(CCCl)CCCl)=C(O)[C@@]2(O)C(=O)C3=C(O)c4c(O)cccc4[C@@](C)(O)[C@H]3C[C@@H]12
T/C (dose: 8.9 mg/kg/injection, vehicle: saline): 105 % of control
T/C (dose: 13.0 mg/kg/injection, vehicle: saline): 84 % of control
T/C (dose: 20.0 mg/kg/injection, vehicle: saline): 94 % of control
T/C (dose: 30.0 mg/kg/injection, vehicle: saline): 52 % of control and 69 % of control
T/C (dose: 44.0 mg/kg/injection, vehicle: saline): 53 % of control

NCC(=O)NC1(C(=O)O)CCCC1 (H-Gly-[Ac5c]-OH)
T/C (dose: 66.0 mg/kg/injection, vehicle: saline): 79 % of control
T/C [8]: 58 % of control
T/C [12]: 35 % of control
T/C (dose: 225.0 mg/kg/injection, vehicle: saline): 20 % of control and 27 % of control

O=C(O)C1(NO)CCCC1
T/C [3]: 88 % of control
T/C [4]: 112 % of control
T/C [5]: 71 % of control
T/C (dose: 112.0 mg/kg/injection, vehicle: saline): 29 % of control

O=P(N1CC1)(N1CC1)N1CC1
T/C (dose: 0.5 mg/kg/injection, vehicle: carboxymethylcellulose (CMC)): 104 % of control
T/C (dose: 1.0 mg/kg/injection, vehicle: carboxymethylcellulose (CMC)): 76 % of control
T/C [16]: 67 % of control
T/C [17]: 41 % of control

C=CC(=O)NCNC(=O)C=C
T/C (dose: 37.5 mg/kg/injection, vehicle: saline): 66 % of control
T/C [11]: 65 % of control

C/C=C1\CN(C)[C@H]2Cc3c([nH]c4ccccc34)[C@@H](c3cc4[nH]c5c(c4cc3OC)CCN3C[C@H]4C[C@H](CC)[C@H]3[C@@]5(C(=O)OC)C4)C[C@H]1C2C(=O)OC (stereo not given in full)
T/C (dose: 20.0 mg/kg/injection, vehicle: water): 49 % of control

CC[C@H]1CN2CCc3cc(OC)c(OC)cc3[C@@H]2C[C@@H]1C[C@H]1NCCc2cc(OC)c(OC)cc21
T/C (dose: 1.0 mg/kg/injection, vehicle: saline): 82 % of control
T/C (dose: 2.0 mg/kg/injection, vehicle: saline): 82 % of control

CC1(C)N=C(N)N=C(N)N1c1cccc(Br)c1
T/C (dose: 4.4 mg/kg/injection, vehicle: carboxymethylcellulose (CMC)): 89 % of control
T/C (dose: 6.6 mg/kg/injection, vehicle: carboxymethylcellulose (CMC)): 102 % of control
T/C [18]: 50 % of control and 51 % of control

Nc1nc(SCc2ccccc2)c2ncn(C3CCCC3)c2n1
T/C [14]: 80 % of control
T/C [15]: 115 % of control
T/C [19]: 83 % of control
T/C [20]: 63 % of control

NC(=O)c1ccc(NC(=O)CCC(=O)Nc2ccc(C(N)=O)cn2)nc1
T/C (dose: 0.66 mg/kg/injection, vehicle: carboxymethylcellulose (CMC)): 118 % of control and 120 % of control
T/C (dose: 2.5 mg/kg/injection, vehicle: carboxymethylcellulose (CMC)): 67 % of control

O=c1n(CCCl)c(=O)n(CCCl)c(=O)n1CCCl
T/C (dose: 31.0 mg/kg/injection, vehicle: saline): 81 % of control
T/C [13]: 83 % of control
T/C [14]: 75 % of control
T/C (dose: 370.0 mg/kg/injection, vehicle: saline): 116 % of control

O=C(c1ccc(C(=O)N2CC2)cc1)N1CC1
T/C (dose: 3.13 mg/kg/injection, vehicle: carboxymethylcellulose (CMC)): 55 % of control
T/C (dose: 6.25 mg/kg/injection, vehicle: carboxymethylcellulose (CMC)): 106 % of control
T/C (dose: 12.5 mg/kg/injection, vehicle: carboxymethylcellulose (CMC)): 118 % of control

O=c1c[n+](-c2ccccc2)[nH]o1
T/C (dose: 22.5 mg/kg/injection, vehicle: carboxymethylcellulose (CMC)): 87 % of control
T/C [21]: 110 % of control
T/C (dose: 90.0 mg/kg/injection, vehicle: carboxymethylcellulose (CMC)): 83 % of control
T/C (dose: 180.0 mg/kg/injection, vehicle: carboxymethylcellulose (CMC)): 70 % of control

CN(N=O)C(N)=O
T/C [18]: 47 % of control and 55 % of control
T/C [22]: 34 % of control and 39 % of control
T/C (dose: 25.0 mg/kg/injection, vehicle: carboxymethylcellulose (CMC)): 38 % of control

CCOC(=O)NC
T/C [14]: 104 % of control
T/C [15]: 67 % of control
T/C [19]: 59 % of control
T/C [20]: 27 % of control

N#CCSc1nc(N)nc2nc[nH]c12
T/C [16]: 90 % of control
T/C [17]: 107 % of control
T/C (dose: 8.0 mg/kg/injection, vehicle: carboxymethylcellulose (CMC)): 86 % of control
T/C [22]: 91 % of control
T/C (dose: 24.0 mg/kg/injection, vehicle: carboxymethylcellulose (CMC)): 113 % of control
T/C (dose: 35.0 mg/kg/injection, vehicle: carboxymethylcellulose (CMC)): 93 % of control
T/C [6]: 90 % of control and 100 % of control
T/C [7]: 44 % of control
T/C (dose: 125.0 mg/kg/injection, vehicle: carboxymethylcellulose (CMC)): 22 % of control

CCCCCCCCCCCCO[P+](=O)OCCCCCCCCCCCC
T/C [23]: 81 % of control
T/C (dose: 95.0 mg/kg/injection, vehicle: carboxymethylcellulose (CMC)): 55 % of control
T/C (dose: 145.0 mg/kg/injection, vehicle: carboxymethylcellulose (CMC)): 51 % of control
T/C (dose: 220.0 mg/kg/injection, vehicle: carboxymethylcellulose (CMC)): 48 % of control
T/C (dose: 222.0 mg/kg/injection, vehicle: carboxymethylcellulose (CMC)): 36 % of control

S=C(N=Nc1ccccc1)NNc1ccccc1
T/C [21]: 95 % of control
T/C [23]: 49 % of control

CCCNC(=NC)c1ccc(NC(=O)c2ccc(C(=O)Nc3ccc(C(=NC)NCCC)cc3)cc2)cc1
T/C (dose: 3.0 mg/kg/injection, vehicle: saline): 91 % of control
T/C [9]: 46 % of control
T/C [10]: 46 % of control
